According to paper PMC12345137 (mBio, 2025):
“Also recorded” adds a separate entry of the source. Read-outs that look alike come from different tables or passages of the source. Positions of bridges follow the written chain, without caps; N, C: chain ends. Residues, ends and D or L forms follow the SMILES beside them.

How the values were obtained:
[1] = system: S. aureus (SA) agr-I; conditions: fluorescence, cited from earlier work
[2] = system: S. aureus (SA) agr-II; conditions: fluorescence, cited from earlier work
[3] = target: S. lugdunensis agr-I (Staphylococcus lugdunensis, UniProt Q8VSW5); experiment: cell-based; conditions: for QS interaction in words (inhibition / activation), S. lugdunensis agr-I: fluorescent reporter strain, peptides tested at 1000, 50, 2.5, 0.125 nM or in dose-response
Outline: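 37°C, 1,000 rpm, 22–24 h in TSB + CAM or ERM (10 μg/mL); 1:5 serial peptide dilutions from 1 mM DMSO stocks; fluorescence (GFP ex 479/em 520, YFP ex 500/em 541) minus blank, ÷OD600, % of untreated control; IC50 by variable-slope fit.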

[4] = system: S. aureus (SA) agr-IV; conditions: fluorescence, cited from earlier work
[5] = system: S. aureus (SA) agr-III; conditions: fluorescence, cited from earlier work
[6] = target: S. aureus agr-II (Staphylococcus aureus, UniProt O33587); experiment: cell-based
Outline: (§1)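 Reporter strains (S. aureus P3-YFP, CAM 10 μg/mL; S. epidermidis P3-sGFP, ERM 10 μg/mL) diluted 1:100 in TSB with peptide (1:5 serial dilutions for IC50), 37°C shaking, 22–24 h. Fluorescence background-subtracted, OD600-normalized, relative to untreated wells; IC50 by variable-slope non-linear regression.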

[7] = target: S. aureus agr-III (Staphylococcus aureus, UniProt O33590); experiment: cell-based
Outline: as §1

[8] = fluorescent reporter strain, peptides tested at 1000, 50, 2.5, 0.125 nM or in dose-response

S. lugdunensis agr-I, sequence (Q8VSW5 entry or part of it): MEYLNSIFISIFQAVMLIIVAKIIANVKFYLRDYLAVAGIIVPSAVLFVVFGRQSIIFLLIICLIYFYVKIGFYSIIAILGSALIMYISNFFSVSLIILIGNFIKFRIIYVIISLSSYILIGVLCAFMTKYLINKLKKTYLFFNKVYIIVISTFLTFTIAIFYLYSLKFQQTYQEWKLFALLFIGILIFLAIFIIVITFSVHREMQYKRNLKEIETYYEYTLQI
S. aureus agr-II, sequence (O33587 entry or part of it): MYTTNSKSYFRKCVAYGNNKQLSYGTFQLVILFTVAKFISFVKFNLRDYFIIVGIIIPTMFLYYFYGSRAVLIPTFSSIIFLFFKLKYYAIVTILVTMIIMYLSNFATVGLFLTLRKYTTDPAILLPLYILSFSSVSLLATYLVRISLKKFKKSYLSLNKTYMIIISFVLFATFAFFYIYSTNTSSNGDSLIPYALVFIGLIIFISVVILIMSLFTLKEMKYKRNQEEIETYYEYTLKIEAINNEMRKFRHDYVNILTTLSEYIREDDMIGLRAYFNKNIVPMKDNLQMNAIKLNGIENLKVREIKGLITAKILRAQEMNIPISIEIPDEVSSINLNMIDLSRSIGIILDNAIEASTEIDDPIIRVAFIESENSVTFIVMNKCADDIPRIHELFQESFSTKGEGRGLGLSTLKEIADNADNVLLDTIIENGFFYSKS
S. aureus agr-III, sequence (O33590 entry or part of it): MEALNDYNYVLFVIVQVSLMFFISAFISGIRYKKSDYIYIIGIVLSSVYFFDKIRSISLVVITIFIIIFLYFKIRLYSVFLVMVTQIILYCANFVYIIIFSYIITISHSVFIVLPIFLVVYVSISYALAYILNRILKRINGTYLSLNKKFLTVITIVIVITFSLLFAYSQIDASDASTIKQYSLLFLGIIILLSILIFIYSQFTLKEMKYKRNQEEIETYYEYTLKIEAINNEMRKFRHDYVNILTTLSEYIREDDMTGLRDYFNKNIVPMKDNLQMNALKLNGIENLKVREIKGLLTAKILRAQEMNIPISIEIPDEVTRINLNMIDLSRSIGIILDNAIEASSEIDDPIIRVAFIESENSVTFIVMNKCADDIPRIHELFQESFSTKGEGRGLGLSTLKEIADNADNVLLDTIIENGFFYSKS

Compound	IC50 ([1]; ref (5))	IC50 ([2]; ref (5))	QS interaction in words (inhibition / activation), S. lugdunensis agr-I [3]	IC50 ([4]; ref (5))	IC50 ([5]; ref (5))	IC50 ([1]; ref (17))	IC50 ([2]; ref (17))	IC50 [6]	IC50 [7]	IC50 [3]	IC50 ([4]; ref (17))	IC50 ([5]; ref (17))	QS interaction in words (inhibition / activation), S. aureus agr-II [6, 8]	QS interaction in words (inhibition / activation), S. aureus agr-III [7, 8]	IC50 fold lower compared with the most potent, previously reported inhibitors of S. lugdunensis ([3]; S. lugdunensis agr-I, comparison with [37])
S. aureus AIP-III D4A [compound 57, reference compound]	0.49 nM	0.43 nM	weak interference	0.035 nM	0.051 nM	–	–	–	–	–	–	–	–	–	–
CC(C)C[C@@H]1NC(=O)[C@@H](NC(=O)[C@@H]2CCCN2C(=O)[C@H](CC(N)=O)NC(=O)[C@H](Cc2ccc(O)cc2)NC(=O)[C@@H](N)CCCCN)CSC(=O)[C@H](CC(C)C)NC(=O)[C@H](Cc2ccccc2)NC(=O)CNC1=O [compound 32, S. simulans AIP-I] (H-KYNPCLGFL; thioester 5-C; N-terminus assumed)	–	–	–	–	–	2.2 nM	1.1 nM	0.31 ± 0.01 nM	0.53 ± 0.02 nM	113 ± 11 nM	23 nM	3.5 nM	–	–	–
NCCCC[C@H](N)C(=O)N[C@@H](Cc1ccc(O)cc1)C(=O)N[C@@H](Cc1ccc(O)cc1)C(=O)N1CCC[C@H]1C(=O)N[C@H]1CSC(=O)[C@H](Cc2ccccc2)NC(=O)[C@H](Cc2ccc(O)cc2)NC(=O)CNC(=O)[C@H](Cc2c[nH]c3ccccc23)NC1=O [compound 33, S. simulans AIP-II] (H-KYYPCWGYF; thioester 5-C)	–	–	inhibited; also recorded: sub- or low-nanomolar potencies	–	–	1.6 nM	–	0.8 ± 0.2 nM	2.8 ± 0.3 nM	1.2 ± 0.2 nM	40 nM	11.5 nM	inhibited	inhibited	–
NCCCC[C@H](N)C(=O)N[C@@H](Cc1ccc(O)cc1)C(=O)N[C@@H](CC(N)=O)C(=O)N1CCC[C@H]1C(=O)N[C@H]1CSC(=O)[C@H](Cc2ccccc2)NC(=O)[C@H](Cc2ccc(O)cc2)NC(=O)CNC(=O)[C@H](Cc2c[nH]c3ccccc23)NC1=O [compound 34, S. simulans AIP-III] (H-KYNPCWGYF; thioester 5-C)	–	–	sub- or low-nanomolar potencies	–	–	1.7 nM	6 nM	0.22 ± 0.06 nM	0.59 ± 0.04 nM	0.48 nM	48 nM	3.2 nM	–	–	400 fold
CC[C@H](C)[C@@H]1NC(=O)[C@H](Cc2ccccc2)NC(=O)[C@H](CC(=O)O)NC(=O)[C@@H](NC(=O)[C@@H](NC(=O)[C@H](CO)NC(=O)[C@@H](N)Cc2ccc(O)cc2)[C@@H](C)O)CSC(=O)[C@H](CCSC)NC1=O [compound 1, S. aureus AIP-I] (H-YSTCDFIM; thioester 4-C)	–	8 nM	–	–	0.53 nM	–	–	5.8 ± 0.7 nM	0.91 nM	> 1000 nM	–	–	–	–	–
